Assay results taken from patent US20110281896A1, “OPTICALLY PURE QUINAZOLINE COMPOUNDS” (Jiangsu Hansoh Pharmaceutical Co. Ltd, priority 2009, published 2011).
pIC50: −log10 of the molar value.

Tests used:
[1] = system: MCF-7; assay: Antitumor activity in vitro, SRB cell proliferation inhibition; assay type: cell-based; settings: 72 h incubation, Logit method
Experimental: (§1) Evaluation of Antitumor Activity In Vitro
(§2) Cell Strains: A431; MCF-7
(§3) Experiment Design: Cells were incubated with different concentrations of compounds for 72 hours. The inhibition of cell proliferation by the compounds was evaluated by SRB, followed by calculation of the inhibition rate. Then, value of IC50 was calculated by using-Logit method base on the inhibition rate and used to compare in vitro antitumor activity of the compounds.
(§4) Method for Calculating the Inhibition Rate: Inhibition rate (%)=(OD value of control group−OD value of drug group)/OD value of control group×100%

[2] = system: A431; assay: as above; assay type: cell-based; settings: 72 h incubation, Logit method
Experimental: as §1, §2, §3, §4

[3] = Homo sapiens, MCF7, MCF-7 cells
[4] = Homo sapiens, A-431, A431 cells

Compound	pIC50 ([1]; MCF-7 cells)	pIC50 ([2]; A431 cells)	pIC50 [1, 3]	pIC50 [2, 4]
CN[C@H](CS(C)(=O)=O)c1ccc(-c2ccc3ncnc(Nc4ccc(OCc5cccc(F)c5)c(Cl)c4)c3c2)o1 [Compound 93, (S)—N-(4-(3-fluorobenzyl-oxy)-3-chlorphenyl)-6-(5-(1-(methylamino)-2-(methylsulfonyl)ethyl)furan-2-yl)quinazolin-4-amine]	5.05	6.34		
CON[C@H](CS(C)(=O)=O)c1ccc(-c2ccc3ncnc(Nc4ccc(OCc5cccc(F)c5)c(Cl)c4)c3c2)o1 [Compound 103]	5.05	6.32		
CCN(C)[C@H](CS(C)(=O)=O)c1ccc(-c2ccc3ncnc(Nc4ccc(OCc5cccc(F)c5)c(Cl)c4)c3c2)o1 [Compound 100, (S)—N-(4-(3-fluorobenzyl-oxy)-3-chlorophenyl)-6-(5-(1-(N-methyl, N-ethyl-amino)-2-(methylsulfonyl)ethyl)furan-2-yl)quinazolin-4-amine]			5.00	6.31
CS(=O)(=O)C[C@H](N)c1ccc(-c2ccc3ncnc(Nc4ccc(OCc5cccc(F)c5)c(Cl)c4)c3c2)o1 [Compound 105, (R)—N-(4-(3-fluorobenzyl-oxy)-3-chlorophenyl)-6-(5-(1-(amino)-2-(methylsulfonyl)ethyl)furan-2-yl)quinazolin-4-amine]			5.10	6.18
CCN[C@H](CS(C)(=O)=O)c1ccc(-c2ccc3ncnc(Nc4ccc(OCc5cccc(F)c5)c(Cl)c4)c3c2)o1 [Compound 94, (S)—N-(4-(3-fluorobenzyl-oxy)-3-chlorophenyl)-6-(5-(1-(ethylamino)-2-(methylsulfonyl)ethyl)furan-2-yl)quinazolin-4-amine]			5.10	6.19
CCCN[C@@H](CS(C)(=O)=O)c1ccc(-c2ccc3ncnc(Nc4ccc(OCc5cccc(F)c5)c(Cl)c4)c3c2)o1 [Compound 108, (R)—N-(4-(3-fluorobenzyl-oxy)-3-chlorophenyl)-6-(5-(1-(propylamino)-2-(methylsulfonyl)ethyl)furan-2-yl)quinazolin-4-amine]			5.23	6.28
CCCN(CCC)[C@H](CS(C)(=O)=O)c1ccc(-c2ccc3ncnc(Nc4ccc(OCc5cccc(F)c5)c(Cl)c4)c3c2)o1 [Compound 99, (S)—N-(4-(3-fluorobenzyl-oxy)-3-chlorophenyl)-6-(5-(1-(N,N-dipropyl-amino)-2-(methylsulfonyl)ethyl)furan-2-yl)quinazolin-4-amine]			5.23	6.12
CN[C@@H](CS(C)(=O)=O)c1ccc(-c2ccc3ncnc(Nc4ccc(OCc5cccc(F)c5)c(Cl)c4)c3c2)o1 [Compound 106, (R)—N-(4-(3-fluorobenzyl-oxy)-3-chlorophenyl)-6-(5-(1-(methylamino)-2-(methylsulfonyl)ethyl)furan-2-yl)quinazolin-4-amine]			5.11	6.33
CCCN[C@H](CS(C)(=O)=O)c1ccc(-c2ccc3ncnc(Nc4ccc(OCc5cccc(F)c5)c(Cl)c4)c3c2)o1 [Compound 95, (S)—N-(4-(3-fluorobenzyl-oxy)-3-chlorophenyl)-6-(5-(1-(propyl-amino)-2-(methylsulfonyl)ethyl)furan-2-yl)quinazolin-4-amine]			5.10	6.34
CS(=O)(=O)C[C@H](NCC1CC1)c1ccc(-c2ccc3ncnc(Nc4ccc(OCc5cccc(F)c5)c(Cl)c4)c3c2)o1 [Compound 109, (R)—N-(4-(3-fluorobenzyl-oxy)-3-chlorophenyl)-6-(5-(1-(cyclopropylmethyl-amino)-2-(methylsulfonyl)ethyl)furan-2-yl)quinazolin-4-amine]			5.21	6.12

The next lines start with the values.

pIC50 ([1]; MCF-7 cells)	pIC50 ([2]; A431 cells)	pIC50 [1, 3]	pIC50 [2, 4]	Compound
5.10	6.26			CCN[C@H](CS(C)(=O)=O)c1cnc(-c2ccc3ncnc(Nc4ccc(OCc5cccc(F)c5)c(Cl)c4)c3c2)s1 [Compound 133]
5.10	6.16			CCN(CC)[C@@H](CS(C)(=O)=O)c1cnc(-c2ccc3ncnc(Nc4ccc(OCc5cccc(F)c5)c(Cl)c4)c3c2)s1 [Compound 124]
		5.08	6.24	CN[C@H](CS(C)(=O)=O)c1ccc(-c2ccc3ncnc(Nc4ccc5c(cnn5Cc5cccc(F)c5)c4)c3c2)o1 [Compound 145, (S)—N-(1-(3-fluorobenzyl)-1H-indazol-5-yl)-6-(5-(1-(methylamino)-2-(methylsulfonyl)ethyl)furan-2-yl)quinazolin-4-amine]
5.27	6.35			CN(C)[C@H](CS(C)(=O)=O)c1cnc(-c2ccc3ncnc(Nc4ccc(OCc5cccc(F)c5)c(Cl)c4)c3c2)s1 [Compound 136]
5.26	6.37			CON(C)[C@H](CS(C)(=O)=O)c1ccc(-c2ccc3ncnc(Nc4ccc5c(cnn5Cc5cccc(F)c5)c4)c3c2)o1 [Compound 156]
		5.10	6.39	CCCN[C@H](CS(C)(=O)=O)c1ccc(-c2ccc3ncnc(Nc4ccc5c(cnn5Cc5cccc(F)c5)c4)c3c2)o1 [Compound 147, (S)—N-(1-(3-fluorobenzyl)-1H-indazol-5-yl)-6-(5-(1-(propylamino)-2-(methylsulfonyl)ethyl)furan-2-yl)quinazolin-4-amine]
		5.07	6.24	CS(=O)(=O)C[C@@H](N)c1cnc(-c2ccc3ncnc(Nc4ccc(OCc5cccc(F)c5)c(Cl)c4)c3c2)s1 [Compound 131, (R)—N-(4-(3-fluorobenzyl-oxy)-3-chlorophenyl)-6-(5-(1-(amino)-2-(methylsulfonyl)ethyl)thiazole-2-yl)quinazolin-4-amine]
5.18	6.22			CCN(C)[C@H](CS(C)(=O)=O)c1ccc(-c2ccc3ncnc(Nc4ccc5c(cnn5Cc5cccc(F)c5)c4)c3c2)o1 [Compound 152]
5.22	6.20			CCCN(CCC)[C@H](CS(C)(=O)=O)c1ccc(-c2ccc3ncnc(Nc4ccc5c(cnn5Cc5cccc(F)c5)c4)c3c2)o1 [Compound 151]
5.00	6.41			CN[C@H](CS(C)(=O)=O)c1cnc(-c2ccc3ncnc(Nc4ccc(OCc5cccc(F)c5)c(Cl)c4)c3c2)s1 [Compound 132]
5.20	6.30			CN(C)[C@@H](CS(C)(=O)=O)c1cnc(-c2ccc3ncnc(Nc4ccc(OCc5cccc(F)c5)c(Cl)c4)c3c2)s1 [Compound 123]
		5.14	6.46	CN(C)[C@H](CS(C)(=O)=O)c1ccc(-c2ccc3ncnc(Nc4ccc5c(cnn5Cc5cccc(F)c5)c4)c3c2)o1 [Compound 149, (S)—N-(1-(3-fluorobenzyl)-1H-indazol-5-yl)-6-(5-(1-(N,N-dimethylamino)-2-(methylsulfonyl)ethyl)furan-2-yl)quinazolin-4-amine]
		5.12	6.27	C#CCN[C@@H](CS(C)(=O)=O)c1ccc(-c2ccc3ncnc(Nc4ccc(OCc5cccc(F)c5)c(Cl)c4)c3c2)o1 [Compound 115, (R)—N-(4-(3-fluorobenzyl-oxy)-3-chlorophenyl)-6-(5-(1-(propargyl-amino)-2-(methylsulfonyl)ethyl)furan-2-yl)quinazolin-4-amine]
5.19	6.24			CCCN[C@H](CS(C)(=O)=O)c1cnc(-c2ccc3ncnc(Nc4ccc(OCc5cccc(F)c5)c(Cl)c4)c3c2)s1 [Compound 134]
